Source: ChEMBL document CHEMBL6153032, “Discovery of a highly potent, N-terminal domain-targeting degrader of AR-FL/AR-V7 for the treatment of prostate cancer” (Eur J Med Chem, 2025)
The source made the active and inactive calls. The rule behind the calls is not given here.

Legend:
[1] = Metabolic stability in human liver microsome assessed as half life measured upto 45 mins by LC/MS analysis; type: ADME; conditions: liver microsomes
[2] = molecular target: T1, Protein cereblon/Androgen receptor (Homo sapiens, UniProt P10275+Q96SW2); test: PROTAC activity at full length Androgen receptor/CRBN in human 22Rv1 cells assessed as induction of full length Androgen receptor degradation at 1 uM incubated for 24 hrs by Western blot analysis relative to control; type: cell-based
Target sequence in this assay (P10275 whole entry, looked up): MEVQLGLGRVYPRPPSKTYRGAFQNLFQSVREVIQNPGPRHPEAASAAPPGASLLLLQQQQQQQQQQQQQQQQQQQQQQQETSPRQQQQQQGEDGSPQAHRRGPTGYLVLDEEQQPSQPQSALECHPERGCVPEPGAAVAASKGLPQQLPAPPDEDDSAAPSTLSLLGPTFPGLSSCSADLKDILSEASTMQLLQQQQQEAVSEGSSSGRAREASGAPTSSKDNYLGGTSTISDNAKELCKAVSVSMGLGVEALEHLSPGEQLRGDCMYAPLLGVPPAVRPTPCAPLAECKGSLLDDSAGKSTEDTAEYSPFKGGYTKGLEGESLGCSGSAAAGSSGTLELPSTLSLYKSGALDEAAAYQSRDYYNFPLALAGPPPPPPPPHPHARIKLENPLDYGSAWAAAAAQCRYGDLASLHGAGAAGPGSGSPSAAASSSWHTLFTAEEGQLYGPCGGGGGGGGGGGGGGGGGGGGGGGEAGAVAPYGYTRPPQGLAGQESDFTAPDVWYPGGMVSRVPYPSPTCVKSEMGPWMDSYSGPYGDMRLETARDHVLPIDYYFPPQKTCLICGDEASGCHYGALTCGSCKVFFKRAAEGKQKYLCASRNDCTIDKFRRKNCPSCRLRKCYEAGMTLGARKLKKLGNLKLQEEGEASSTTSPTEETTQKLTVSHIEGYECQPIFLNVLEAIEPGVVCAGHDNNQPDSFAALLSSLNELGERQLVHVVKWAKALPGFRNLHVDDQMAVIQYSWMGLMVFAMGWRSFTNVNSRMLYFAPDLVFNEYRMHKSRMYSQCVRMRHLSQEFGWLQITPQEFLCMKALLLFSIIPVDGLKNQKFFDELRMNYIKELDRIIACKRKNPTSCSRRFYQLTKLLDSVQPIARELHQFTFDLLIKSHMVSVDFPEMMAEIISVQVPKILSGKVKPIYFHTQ
Target sequence in this assay (Q96SW2 whole entry, looked up): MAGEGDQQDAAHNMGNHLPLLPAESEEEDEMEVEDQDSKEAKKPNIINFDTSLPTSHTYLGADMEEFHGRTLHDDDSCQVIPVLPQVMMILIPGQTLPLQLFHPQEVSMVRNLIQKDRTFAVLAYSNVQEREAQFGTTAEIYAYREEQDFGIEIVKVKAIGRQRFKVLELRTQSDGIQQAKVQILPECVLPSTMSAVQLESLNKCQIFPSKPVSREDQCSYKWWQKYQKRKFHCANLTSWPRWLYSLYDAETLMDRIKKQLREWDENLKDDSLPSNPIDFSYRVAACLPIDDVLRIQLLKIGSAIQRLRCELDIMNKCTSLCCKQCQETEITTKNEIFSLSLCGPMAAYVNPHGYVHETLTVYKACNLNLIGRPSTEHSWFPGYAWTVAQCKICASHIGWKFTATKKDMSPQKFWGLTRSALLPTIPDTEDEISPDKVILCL

[3] = Toxicity in BALB/c mouse assessed as heart damage at 10 mg/kg, iv administered once daily for 21 days by H and E staining based analysis; type: organism-based; conditions: in vivo, 504 h, time 21 day
[4] = system: CWR22R; test: Antitumor activity against human 22Rv1 cells xenografted in BALB/c nude mouse assessed as redcution in tumor volume at 10 mg/kg, iv administered once daily for 21 days; type: functional, organism-based; conditions: time 21.0 day
[5] = Toxicity in BALB/c mouse assessed as body weight loss at 10 mg/kg, iv administered once daily for 21 days; type: organism-based; conditions: in vivo, 504 h, time 21 day
[6] = system: CWR22R; test: Antitumor activity against human 22Rv1 cells xenografted in BALB/c nude mouse assessed as redcution in tumor weight at 10 mg/kg, iv administered once daily for 21 days; type: functional, organism-based; conditions: time 21.0 day
[7] = Initial plasma concentration in Sprague-Dawley rat 2 mg/kg, iv by LC-MS/MS analysis; type: ADME, organism-based
[8] = molecular target: Voltage-gated inwardly rectifying potassium channel KCNH2 (Homo sapiens, UniProt Q12809); test: Inhibition of hERG; type: toxicity
[9] = system: Protein cereblon/Androgen receptor (Homo sapiens), P10275+Q96SW2 [UNDEFINED MUTATION]; test: PROTAC activity at AR-V7/CRBN in human 22Rv1 cells assessed as reduction in AR-V7 level at 100 nM incubated for 24 hrs by immunofluorescence analysis; type: cell-based; conditions: CWR22R
[10] = molecular target: T1, Protein cereblon/Androgen receptor; test: PROTAC activity at full length Androgen receptor/CRBN in human LNCaP cells assessed as reduction in full length androgen receptor level at 1 uM by Western blot analysis; type: cell-based; conditions: time <= 4.0 hrs
Target sequence in this assay (P10275 whole entry, looked up): as the sequence (P10275 whole entry, looked up) above
Target sequence in this assay (Q96SW2 whole entry, looked up): as the sequence (Q96SW2 whole entry, looked up) above

[11] = Metabolic stability in mouse liver microsome assessed as half life measured upto 45 mins by LC/MS analysis; type: ADME; conditions: liver microsomes
[12] = system: Protein cereblon/Androgen receptor (Homo sapiens), P10275+Q96SW2 [UNDEFINED MUTATION]; test: PROTAC activity at AR-V7/CRBN in human 22Rv1 cells assessed as induction of AR-V7 degradation at 0.1 uM incubated for 24 hrs in presence of CHX by Western blot analysis; type: cell-based; conditions: CWR22R
[13] = system: Protein cereblon/Androgen receptor (Homo sapiens), P10275+Q96SW2 [UNDEFINED MUTATION]; test: PROTAC activity at AR-V7/CRBN in human 22Rv1 cells assessed as induction of AR-V7 degradation at 100 nM incubated for 12 hrs in presence of MG132 by Western blot analysis; type: cell-based; conditions: CWR22R
[14] = system: Protein cereblon/Androgen receptor (Homo sapiens), P10275+Q96SW2 [UNDEFINED MUTATION]; test: PROTAC activity at AR-V7/CRBN in human 22Rv1 cells assessed as induction of AR-V7 degradation at 100 nM incubated for 12 hrs in presence of Thalidomide by Western blot analysis; type: cell-based; conditions: CWR22R
[15] = system: CWR22R; test: Induction of cell cycle arrest in human 22Rv1 cells assessed as accumulation of cells at S phase at 500 nM incubated for 24 hrs by PI staining based flow cytometry analysis (reference value: […]%); type: functional
[16] = system: CWR22R; test: Antitumor activity against human 22Rv1 cells xenografted in BALB/c nude mouse assessed as reduction in AR-v7 level at 10 mg/kg, iv administered once daily for 21 days; type: functional, organism-based; conditions: time 21.0 day
[17] = molecular target: T1, Protein cereblon/Androgen receptor; test: (§1) PROTAC activity at AR-V7/CRBN in human 22Rv1 cells assessed as reduction in AR-V7 level incubated for 24 hrs by Western blot analysis; type: cell-based; conditions: cwr22r
Target sequence in this assay (P10275 whole entry, looked up, change not shown): as the sequence (P10275 whole entry, looked up) above
Target sequence in this assay (Q96SW2 whole entry, looked up, change not shown): as the sequence (Q96SW2 whole entry, looked up) above

[18] = system: Protein cereblon/Androgen receptor (Homo sapiens), P10275+Q96SW2 [UNDEFINED MUTATION]; test: as §1; type: cell-based; conditions: CWR22R, dose <= 5.0 µM
[19] = system: CWR22R; test: Antiproliferative activity against human 22Rv1 cells incubated for 4 days by CCK-8 assay; type: functional, cell-based; conditions: 22Rv1, 96 h
[20] = MRT (0 to t) in Sprague-Dawley rat 2 mg/kg, iv by LC-MS/MS analysis; type: ADME, organism-based; conditions: in vivo
[21] = molecular target: T1, Protein cereblon/Androgen receptor; test: PROTAC activity at full length Androgen receptor/CRBN in human 22Rv1 cells assessed as induction of full length Androgen receptor degradation at 5 uM incubated for 24 hrs by Western blot analysis relative to control; type: cell-based
Target sequence in this assay (P10275 whole entry, looked up): as the sequence (P10275 whole entry, looked up) above
Target sequence in this assay (Q96SW2 whole entry, looked up): as the sequence (Q96SW2 whole entry, looked up) above

[22] = system: CWR22R; test: Induction of apoptosis in human 22Rv1 cells assessed as necrotic cells at 100 nM incubated for 48 hrs by Annexin V/FITC staining based flow cytometry analysis (reference value: 2.31 %); type: functional
[23] = system: CWR22R; test: Antitumor activity against human 22Rv1 cells xenografted in BALB/c nude mouse assessed as reduction in AR level at 10 mg/kg, iv administered once daily for 21 days; type: functional, organism-based; conditions: time 21.0 day
[24] = system: CWR22R; test: Induction of apoptosis in human 22Rv1 cells assessed as early apoptotic cells at 500 nM incubated for 48 hrs by Annexin V/FITC staining based flow cytometry analysis (reference value: 2.08 %); type: functional
[25] = system: CWR22R; test: Inhibition of colony formation in human 22Rv1 cells assessed as reduction in colony formation incubated for 14 days; type: functional, cell-based; conditions: dose 1-100 nM, time 14.0 day
[26] = AUC (0 to infinity) in Sprague-Dawley rat 2 mg/kg, iv by LC-MS/MS analysis; type: ADME, organism-based; conditions: in vivo
[27] = system: CWR22R; test: Induction of cell cycle arrest in human 22Rv1 cells assessed as accumulation of cells at G0/G1 phase at 500 nM incubated for 24 hrs by PI staining based flow cytometry analysis (reference value: 62.66%); type: functional
[28] = Half life in Sprague-Dawley rat 2 mg/kg, iv by LC-MS/MS analysis; type: ADME, organism-based; conditions: in vivo
[29] = system: Protein cereblon/Androgen receptor (Homo sapiens), P10275+Q96SW2 [UNDEFINED MUTATION]; test: PROTAC activity at AR-V7/CRBN in human 22Rv1 cells assessed as induction of AR-V7 degradation at 1 uM incubated for 24 hrs by Western blot analysis relative to control; type: cell-based; conditions: CWR22R
[30] = system: CWR22R; test: Induction of cell cycle arrest in human 22Rv1 cells assessed as accumulation of cells at S phase at 100 nM incubated for 24 hrs by PI staining based flow cytometry analysis (reference value: 28.73%); type: functional
[31] = molecular target: T1, Protein cereblon/Androgen receptor; test: PROTAC activity at full length Androgen receptor/CRBN in human 22Rv1 cells assessed as reduction in full length androgen receptor level incubated for 24 hrs by Western blot analysis; type: cell-based
[32] = Toxicity in BALB/c mouse assessed as liver damage at 10 mg/kg, iv administered once daily for 21 days by H and E staining based analysis; type: organism-based; conditions: in vivo, 504 h, time 21 day
[33] = system: Protein cereblon/Androgen receptor (Homo sapiens), P10275+Q96SW2 [UNDEFINED MUTATION]; test: PROTAC activity at AR-V7/CRBN in human 22Rv1 cells assessed as induction of AR-V7 degradation at 100 nM incubated for 12 hrs in presence of MLN4924 by Western blot analysis; type: cell-based; conditions: CWR22R
[34] = molecular target: Protein cereblon/Estrogen receptor (Homo sapiens) (UniProt P03372+Q96SW2); test: PROTAC activity at CRBN/ERalpha in human 22Rv1 cells assessed as reduction in ERalpha protein level at 0.01 to 5 uM measured after 24 hrs by Western blot analysis; type: cell-based; conditions: dose 0.01-5 µM
[35] = system: Protein cereblon/Androgen receptor (Homo sapiens), P10275+Q96SW2 [UNDEFINED MUTATION]; test: PROTAC activity at AR-V7/CRBN in human 22Rv1 cells assessed as induction of AR-V7 degradation at 5 uM incubated for 24 hrs by Western blot analysis relative to control; type: cell-based; conditions: CWR22R
[36] = AUC (0 to t) in Sprague-Dawley rat 2 mg/kg, iv by LC-MS/MS analysis; type: ADME, organism-based; conditions: in vivo

Protein cereblon/Androgen receptor (Homo sapiens), P10275+Q96SW2 [UNDEFINED MUTATION], sequence (P10275 whole entry, looked up, stated change not applied): as the sequence (P10275 whole entry, looked up) above
Protein cereblon/Androgen receptor (Homo sapiens), P10275+Q96SW2 [UNDEFINED MUTATION], sequence (Q96SW2 whole entry, looked up, stated change not applied): as the sequence (Q96SW2 whole entry, looked up) above
Voltage-gated inwardly rectifying potassium channel KCNH2, sequence (Q12809 whole entry): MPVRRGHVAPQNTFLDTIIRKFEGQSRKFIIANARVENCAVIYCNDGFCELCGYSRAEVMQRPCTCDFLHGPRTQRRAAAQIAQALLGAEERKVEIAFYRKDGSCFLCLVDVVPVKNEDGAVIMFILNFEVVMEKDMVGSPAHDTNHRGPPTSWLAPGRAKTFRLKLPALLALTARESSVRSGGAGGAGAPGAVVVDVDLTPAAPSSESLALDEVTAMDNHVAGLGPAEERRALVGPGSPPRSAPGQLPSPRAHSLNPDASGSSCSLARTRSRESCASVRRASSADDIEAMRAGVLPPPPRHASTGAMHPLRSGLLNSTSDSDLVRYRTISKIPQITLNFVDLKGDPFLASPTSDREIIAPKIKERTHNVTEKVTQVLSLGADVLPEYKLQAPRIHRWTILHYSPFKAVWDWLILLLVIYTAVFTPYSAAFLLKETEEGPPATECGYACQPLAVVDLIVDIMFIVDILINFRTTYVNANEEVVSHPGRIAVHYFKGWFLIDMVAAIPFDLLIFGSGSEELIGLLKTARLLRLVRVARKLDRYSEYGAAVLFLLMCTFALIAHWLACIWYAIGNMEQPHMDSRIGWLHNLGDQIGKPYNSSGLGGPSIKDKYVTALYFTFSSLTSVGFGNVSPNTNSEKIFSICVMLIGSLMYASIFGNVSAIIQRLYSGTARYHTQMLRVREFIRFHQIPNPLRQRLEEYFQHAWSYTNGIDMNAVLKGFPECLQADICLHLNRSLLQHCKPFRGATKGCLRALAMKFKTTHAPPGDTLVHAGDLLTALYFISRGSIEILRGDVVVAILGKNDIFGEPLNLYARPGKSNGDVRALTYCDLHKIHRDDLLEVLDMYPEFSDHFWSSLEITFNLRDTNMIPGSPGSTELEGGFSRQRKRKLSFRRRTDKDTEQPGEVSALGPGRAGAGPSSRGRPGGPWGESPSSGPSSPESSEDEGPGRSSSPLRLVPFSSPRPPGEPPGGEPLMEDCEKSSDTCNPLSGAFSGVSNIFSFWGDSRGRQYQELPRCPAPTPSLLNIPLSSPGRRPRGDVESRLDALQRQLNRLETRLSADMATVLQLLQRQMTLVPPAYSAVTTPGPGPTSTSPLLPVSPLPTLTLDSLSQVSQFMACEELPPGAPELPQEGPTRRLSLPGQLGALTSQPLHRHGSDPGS
Protein cereblon/Estrogen receptor (Homo sapiens), sequence (P03372 whole entry, looked up): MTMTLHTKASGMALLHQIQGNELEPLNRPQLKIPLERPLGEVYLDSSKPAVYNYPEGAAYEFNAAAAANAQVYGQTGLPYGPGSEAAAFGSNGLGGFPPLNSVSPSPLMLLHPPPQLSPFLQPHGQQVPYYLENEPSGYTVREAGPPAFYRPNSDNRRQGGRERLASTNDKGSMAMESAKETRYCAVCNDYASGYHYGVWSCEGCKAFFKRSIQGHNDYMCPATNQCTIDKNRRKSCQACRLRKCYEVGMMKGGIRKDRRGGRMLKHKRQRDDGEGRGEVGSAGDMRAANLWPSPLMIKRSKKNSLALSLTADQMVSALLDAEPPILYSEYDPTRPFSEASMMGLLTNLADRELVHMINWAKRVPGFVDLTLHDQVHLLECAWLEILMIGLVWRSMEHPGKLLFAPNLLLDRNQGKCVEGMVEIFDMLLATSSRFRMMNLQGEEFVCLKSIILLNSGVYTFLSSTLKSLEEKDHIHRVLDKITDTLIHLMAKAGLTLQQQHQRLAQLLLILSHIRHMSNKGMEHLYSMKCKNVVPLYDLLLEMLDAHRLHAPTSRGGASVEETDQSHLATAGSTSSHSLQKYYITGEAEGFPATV
Protein cereblon/Estrogen receptor (Homo sapiens), sequence (Q96SW2 whole entry, looked up): as the sequence (Q96SW2 whole entry, looked up) above

Structure (SMILES): CC(C)(c1ccc(OCCNc2cccc3c2C(=O)N(C2CCC(=O)NC2=O)C3=O)cc1)c1ccc(OCc2cccc(N3CCOCC3)n2)cc1 (configuration not stated)
- half-life [1]: 37.2 min
- Activity [2]: 89.2%
- Activity [3]: Non-toxic
- Activity [4]: Active
- Activity [5]: Non-toxic
- Activity [6]: Active
- C0 [7]: 13900 ng/mL
- IC50 [8]: > 10000 nM
- Activity [9]: Active
- Activity [10]: Dose-dependent-effect
- half-life [11]: 18.4 min
- Activity [12]: Active
- Activity [13]: Active
- Activity [14]: Active
- Activity [15]: 38.58%
- Activity [16]: Active
- DC50 [17]: 26 nM
- Activity [18]: Dose-dependent-effect
- IC50 [19]: 38 nM
- MRT last [20]: 32.4 min
- Activity [21]: 90.2%
- Activity [22]: 2.13%
- Activity [23]: Active
- Activity [24]: 16.93%
- inhibition [25]: Dose-dependent-effect
- AUC(0-inf) [26]: 2220 ng·h/mL
- Activity [27]: 39.88%
- half-life [28]: 158 min
- Activity [29]: 88.7%
- Activity [30]: 43.39%
- DC50 [31]: 180 nM
- Activity ([31]; dose <= 5.0 µM): Dose-dependent-effect
- Activity [32]: Non-toxic
- Activity [33]: Active
- Activity [34]: Active
- Activity [35]: 89.6%
- AUC(0-t) [36]: 2210 ng·h/mL
